According to patent US9233976B2, “Berbamine derivatives” (CITY OF HOPE, priority 2009, dated 2016):

Key:
[1] = biological target: Jak1 kinase (Homo sapiens, UniProt P23458); test: In vitro Jak1 kinase assay with peptide substrate; type: biochemical; conditions: activated recombinant protein with peptide substrate and ATP
From the text: (§1) To determine whether BA #3 inhibits activities of Src kinase, Jak2 kinase, Jak1 kinase and Tyk2 kinase in vitro, activated recombinant proteins were mixed with peptide substrates and ATP in the absence or the presence of BA #3. […] However, BA #3 reduced Jak2 autophosphorylation kinase activity at Tyr1007/1008 sites in vitro in the reaction of mixture of non-activated recombinant Jak2 protein and ATP in the absence of substrates (FIG. 19).

[2] = system: Jak2/Stat3 signaling; test: Western blot of Jak2/Stat3 signaling in erythroleukemia HEL cells; type: cell-based; conditions: 0-10 μM, 4 hour
Description: (§2) To determine whether BA #3 block Jak2/Stat3 or Src/Stat3 signaling pathway, A2058 melanoma (A and B) and erythroleukemia HEL cells were treated with BA #3 in a dose- or time-dependent manner. Western blots were performed with specific antibodies to p-Jak2, p-Src, p-Stat3, p-AKT, Jak2, Src, Stat3 and AKT.

[3] = system: human acute lymphocytic leukemia (Reh) cells; test: MTS cell viability assay in Reh cells; type: cell-based; conditions: 48 h
Description: (§3) Each type of cells (5,000 or 10,000 cells/well) were treated with different concentration (0.1 μM to 20 μM in 1% DMSO of berbamine and BA #3 respectively for 48 h. Then, MTS assay for cell viability were carried out to determine the IC50 values. Four samples were tested for each test compound at each concentration for each type of cells, and the averaged data were shown in Table 4 and FIGS. 12-13.

[4] = biological target: Jak2 kinase (Homo sapiens, UniProt O60674); test: In vitro Jak2 kinase assay with peptide substrate; type: biochemical; conditions: activated recombinant protein with peptide substrate and ATP
From the text: as §1

[5] = system: melanoma G361 cells; test: MTS cell viability assay in G361 cells; type: cell-based; conditions: Homo sapiens, G-361, G361, 48 h
Description: as §3

[6] = biological target: Src kinase (Homo sapiens, UniProt P12931); test: In vitro Src kinase assay with peptide substrate; type: biochemical; conditions: activated recombinant protein with peptide substrate and ATP
From the text: as §1

[7] = system: A2058 human melanoma cell line; test: MTS cell viability assay in A2058 cells; type: cell-based; conditions: Homo sapiens, A2058, 48 h
Description: (§4) IC50 of values of berbamine derivatives were determined in cancer cell lines DU145 and A2058 respectively. DU145 and A2058 cells (5,000 cells/well) were treated with berbamine derivatives in a dose-dependent manner (0.1 to 20 μM in 1% DMSO for 48 h. Then, MTS assay for cell viability were carried out to determine the IC50 values. Four samples were tested for each berbamine derivatives at each concentration in each cell line, and the averaged data were shown in Table 1 and FIGS. 1-8.

[8] = system: Human normal dermal fibroblast (NHDF) cells; test: Cell viability in normal dermal fibroblasts; type: cell-based; conditions: Homo sapiens, 48 h
[9] = system: Imatinib-resistant leukemia (K562/ADR) cells; test: Cell viability in imatinib-resistant leukemia cells; type: cell-based
Description: Imatinib-resistant leukemia (K562/ADR) cells (5,000 cells/well) were treated with different concentrations (0.6-40 μM in DMSO) of BA #1, BA #3 and BA #4 respectively for 48 hours and cell viability was measured.

[10] = system: human acute lymphoblastic leukemia (Molt4) cells; test: MTS cell viability assay in Molt4 cells; type: cell-based; conditions: MOLT-4, Molt4, 48 h
Description: as §3

[11] = system: human erythroleukemia HEL (homozygous JAK2 V617F mutation) cells; test: MTS cell viability assay in HEL cells; type: cell-based; conditions: HEL Jak2 V617 mutation, 48 h
Description: HEL Jak2 V617 mutation cells (10,000 cells/well) were treated with different concentration (0.1 μM to 20 μM in 1% DMSO of berbamine, BA #3, and BA #10 respectively for 48 h. Then, MTS assay for cell viability were carried out to determine the IC50 values. Four samples were tested for each test compound at each concentration, and the averaged data were shown in Table 3 and FIGS. 10-11.

[12] = system: ovarian cancer OVCAR5 cells; test: MTS cell viability assay in OVCAR5 cells; type: cell-based; conditions: Homo sapiens, OVCAR-5, OVCAR5, 48 h
Description: as §3

[13] = system: A2058 cells; test: Annexin V-FITC apoptosis assay; type: cell-based; conditions: 0-10 μM, 48 hours
Description: A2058 cells were treated with BA #3 in a dose dependent manner (0-10 μM) for 48 hours.

[14] = system: Bcl-xL; test: Western blot of Bcl-xL protein; type: cell-based; conditions: 5 μM, 24 h
Description: (§5) To determine whether BA #3 down-regulates Stat3 downstream anti-apototic proteins Mcl-1 and Bcl-xL, cells were treated with BA #3 in a dose-dependent manner for 24 h. Western blots were performed with specific antibodies to Mcl-1 and Bcl-xL.

[15] = system: melanoma SK-MEL-5 cells; test: MTS cell viability assay in SK-MEL-5 cells; type: cell-based; conditions: Homo sapiens, SK-MEL-5, 48 h
Description: as §3

[16] = system: Jak2/Stat3 signaling; test: Western blot of Jak2/Stat3 signaling in A2058 melanoma cells; type: cell-based; conditions: 0-10 μM for 4 hour or 10 μM for 0-24 hour
Description: as §2

[17] = system: melanoma A375 cells; test: MTS cell viability assay in A375 cells; type: cell-based; conditions: Homo sapiens, A-375, A375, 48 h
Description: as §3

[18] = Maximum tolerated dose (MTD) study, body weight; type: in vivo; conditions: mice, oral, 50 mg/kg and 100 mg/kg every day for 5 days
Description: Three test groups of mice (four mice per group) were orally administrated with vehicle only, 50 mg/kg BA #3 and 100 mg/kg BA #3 respectively every day for 5 days. Mice were weighed every day. Two sets of experiments were carried out (FIGS. 22(A) and (B)).

[19] = system: pancreatic cancer (PANC-1) cells; test: MTS cell viability assay in PANC-1 cells; type: cell-based; conditions: Homo sapiens, PANC-1, 48 h
Description: as §3

[20] = system: multiple myeloma (U266) cells; test: MTS cell viability assay in U266 cells; type: cell-based; conditions: Homo sapiens, U-266, U266, 48 h
Description: as §3

[21] = biological target: Tyk2 kinase (Homo sapiens, UniProt P29597); test: In vitro Tyk2 kinase assay with peptide substrate; type: biochemical; conditions: activated recombinant protein with peptide substrate and ATP
From the text: as §1

[22] = system: melanoma SK-MEL-28 cells; test: MTS cell viability assay in SK-MEL-28 cells; type: cell-based; conditions: Homo sapiens, SK-MEL-28, 48 h
Description: as §3

[23] = biological target: non-activated recombinant Jak2 protein (autophosphorylation at Tyr1007/1008) (Homo sapiens, UniProt O60674); test: In vitro Jak2 autophosphorylation kinase assay; type: biochemical; conditions: non-activated recombinant Jak2 and ATP, no substrate, densitometry; read-out: IC50 for inhibition of autophosphorylation kinase activity
From the text: as §1, with “FIG. 19. In vitro Jak2 autophosphorylation kinase assay of BA #3. A) Autophosphorylation of Jak2 at Tyr1007/1008 was required for its catalytic activity, non-activated recombinant Jak2 protein was mixed with ATP in the absence or presence of BA #3; B) inhibitory activity of Jak2 autophosphorylation based on the densitometry of FIG. 19(A). To” for “To”

[24] = system: ovarian cancer SKOV3 cells; test: MTS cell viability assay in SKOV3 cells; type: cell-based; conditions: Homo sapiens, SK-OV-3, SKOV3, 48 h
Description: as §3

[25] = system: Mcl-1; test: Western blot of Mcl-1 protein; type: cell-based; conditions: 5 μM, 24 h
Description: as §5

[26] = system: DU145 prostate cancer cell line; test: MTS cell viability assay in DU145 cells; type: cell-based; conditions: Homo sapiens, DU-145, 48 h, DU145, 48 h
Description: as §4

Tyk2 kinase, sequence (P29597 whole entry): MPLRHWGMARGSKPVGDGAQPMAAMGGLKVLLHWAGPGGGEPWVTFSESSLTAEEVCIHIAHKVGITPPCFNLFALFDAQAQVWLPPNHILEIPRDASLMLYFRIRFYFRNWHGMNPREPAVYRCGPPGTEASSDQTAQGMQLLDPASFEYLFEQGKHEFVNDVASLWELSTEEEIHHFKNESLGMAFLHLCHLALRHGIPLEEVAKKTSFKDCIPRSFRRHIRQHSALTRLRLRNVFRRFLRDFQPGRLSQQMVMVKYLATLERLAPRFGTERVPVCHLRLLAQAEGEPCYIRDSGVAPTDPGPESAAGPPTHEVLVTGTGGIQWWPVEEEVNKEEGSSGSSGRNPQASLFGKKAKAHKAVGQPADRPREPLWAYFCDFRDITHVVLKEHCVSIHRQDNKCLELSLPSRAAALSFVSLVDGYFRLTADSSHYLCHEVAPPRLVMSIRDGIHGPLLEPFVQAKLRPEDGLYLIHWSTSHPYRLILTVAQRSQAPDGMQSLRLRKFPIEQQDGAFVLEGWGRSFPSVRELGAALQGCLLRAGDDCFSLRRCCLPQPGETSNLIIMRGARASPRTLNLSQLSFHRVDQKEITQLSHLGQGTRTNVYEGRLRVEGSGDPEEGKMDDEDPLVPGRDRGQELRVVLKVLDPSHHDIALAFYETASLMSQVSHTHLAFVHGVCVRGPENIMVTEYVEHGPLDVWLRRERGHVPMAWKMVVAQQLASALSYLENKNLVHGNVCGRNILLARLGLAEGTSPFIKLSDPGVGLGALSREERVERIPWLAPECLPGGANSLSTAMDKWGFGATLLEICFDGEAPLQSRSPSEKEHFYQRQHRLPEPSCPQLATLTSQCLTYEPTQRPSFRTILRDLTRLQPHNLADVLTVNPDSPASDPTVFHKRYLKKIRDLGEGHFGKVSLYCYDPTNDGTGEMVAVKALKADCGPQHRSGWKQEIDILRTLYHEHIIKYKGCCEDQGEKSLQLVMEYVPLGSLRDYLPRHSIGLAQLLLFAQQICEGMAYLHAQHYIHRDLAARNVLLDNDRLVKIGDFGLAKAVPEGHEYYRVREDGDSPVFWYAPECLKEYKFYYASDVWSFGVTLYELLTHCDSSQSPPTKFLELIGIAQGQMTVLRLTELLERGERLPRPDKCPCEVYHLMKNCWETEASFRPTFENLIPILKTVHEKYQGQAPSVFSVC
Src kinase, sequence (P12931 whole entry): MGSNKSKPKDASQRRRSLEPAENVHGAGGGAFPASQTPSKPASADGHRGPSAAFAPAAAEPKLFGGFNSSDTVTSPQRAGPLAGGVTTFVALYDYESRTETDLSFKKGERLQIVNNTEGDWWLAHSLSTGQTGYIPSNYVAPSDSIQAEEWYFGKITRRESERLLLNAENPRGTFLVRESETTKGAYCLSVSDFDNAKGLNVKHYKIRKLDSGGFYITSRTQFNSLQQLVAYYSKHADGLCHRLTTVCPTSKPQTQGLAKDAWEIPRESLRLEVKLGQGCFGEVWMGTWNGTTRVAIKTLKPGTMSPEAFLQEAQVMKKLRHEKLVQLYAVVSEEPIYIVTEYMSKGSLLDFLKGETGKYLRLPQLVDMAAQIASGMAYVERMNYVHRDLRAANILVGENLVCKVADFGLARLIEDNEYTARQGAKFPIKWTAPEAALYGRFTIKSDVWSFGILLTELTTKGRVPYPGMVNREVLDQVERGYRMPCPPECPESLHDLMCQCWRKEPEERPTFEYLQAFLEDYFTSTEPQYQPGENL
Jak2 kinase, sequence (O60674 whole entry): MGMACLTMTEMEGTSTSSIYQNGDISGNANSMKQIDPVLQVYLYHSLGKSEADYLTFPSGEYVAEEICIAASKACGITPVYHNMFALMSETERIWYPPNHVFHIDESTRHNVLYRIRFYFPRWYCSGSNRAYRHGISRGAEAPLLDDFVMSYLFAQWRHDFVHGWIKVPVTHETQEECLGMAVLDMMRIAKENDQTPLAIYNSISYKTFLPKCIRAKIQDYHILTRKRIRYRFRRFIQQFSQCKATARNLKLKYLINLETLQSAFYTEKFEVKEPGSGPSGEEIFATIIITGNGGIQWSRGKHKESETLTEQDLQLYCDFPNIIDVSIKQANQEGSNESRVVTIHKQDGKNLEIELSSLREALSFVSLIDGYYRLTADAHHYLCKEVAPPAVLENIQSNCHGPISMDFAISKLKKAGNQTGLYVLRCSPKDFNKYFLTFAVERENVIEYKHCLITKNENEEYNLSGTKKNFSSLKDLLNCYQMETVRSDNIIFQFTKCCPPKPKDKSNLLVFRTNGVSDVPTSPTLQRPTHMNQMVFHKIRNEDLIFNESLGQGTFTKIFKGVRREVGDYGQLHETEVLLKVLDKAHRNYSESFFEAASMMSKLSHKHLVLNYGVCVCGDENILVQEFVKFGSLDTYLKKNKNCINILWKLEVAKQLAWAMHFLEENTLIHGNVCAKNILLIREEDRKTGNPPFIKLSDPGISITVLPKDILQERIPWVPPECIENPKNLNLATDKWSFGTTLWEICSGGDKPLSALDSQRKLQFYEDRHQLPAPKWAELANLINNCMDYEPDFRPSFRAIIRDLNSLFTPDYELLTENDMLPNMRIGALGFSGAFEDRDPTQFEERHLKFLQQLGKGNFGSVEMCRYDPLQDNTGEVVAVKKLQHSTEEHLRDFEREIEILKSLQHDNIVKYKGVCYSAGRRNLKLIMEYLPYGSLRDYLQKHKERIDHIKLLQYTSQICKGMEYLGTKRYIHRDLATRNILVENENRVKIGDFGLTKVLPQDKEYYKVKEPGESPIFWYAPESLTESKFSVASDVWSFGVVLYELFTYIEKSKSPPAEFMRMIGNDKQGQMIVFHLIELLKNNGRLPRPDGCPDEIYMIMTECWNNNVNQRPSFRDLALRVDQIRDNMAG
non-activated recombinant Jak2 protein (autophosphorylation at Tyr1007/1008), sequence (O60674 whole entry): as above
Jak1 kinase, sequence (P23458 whole entry): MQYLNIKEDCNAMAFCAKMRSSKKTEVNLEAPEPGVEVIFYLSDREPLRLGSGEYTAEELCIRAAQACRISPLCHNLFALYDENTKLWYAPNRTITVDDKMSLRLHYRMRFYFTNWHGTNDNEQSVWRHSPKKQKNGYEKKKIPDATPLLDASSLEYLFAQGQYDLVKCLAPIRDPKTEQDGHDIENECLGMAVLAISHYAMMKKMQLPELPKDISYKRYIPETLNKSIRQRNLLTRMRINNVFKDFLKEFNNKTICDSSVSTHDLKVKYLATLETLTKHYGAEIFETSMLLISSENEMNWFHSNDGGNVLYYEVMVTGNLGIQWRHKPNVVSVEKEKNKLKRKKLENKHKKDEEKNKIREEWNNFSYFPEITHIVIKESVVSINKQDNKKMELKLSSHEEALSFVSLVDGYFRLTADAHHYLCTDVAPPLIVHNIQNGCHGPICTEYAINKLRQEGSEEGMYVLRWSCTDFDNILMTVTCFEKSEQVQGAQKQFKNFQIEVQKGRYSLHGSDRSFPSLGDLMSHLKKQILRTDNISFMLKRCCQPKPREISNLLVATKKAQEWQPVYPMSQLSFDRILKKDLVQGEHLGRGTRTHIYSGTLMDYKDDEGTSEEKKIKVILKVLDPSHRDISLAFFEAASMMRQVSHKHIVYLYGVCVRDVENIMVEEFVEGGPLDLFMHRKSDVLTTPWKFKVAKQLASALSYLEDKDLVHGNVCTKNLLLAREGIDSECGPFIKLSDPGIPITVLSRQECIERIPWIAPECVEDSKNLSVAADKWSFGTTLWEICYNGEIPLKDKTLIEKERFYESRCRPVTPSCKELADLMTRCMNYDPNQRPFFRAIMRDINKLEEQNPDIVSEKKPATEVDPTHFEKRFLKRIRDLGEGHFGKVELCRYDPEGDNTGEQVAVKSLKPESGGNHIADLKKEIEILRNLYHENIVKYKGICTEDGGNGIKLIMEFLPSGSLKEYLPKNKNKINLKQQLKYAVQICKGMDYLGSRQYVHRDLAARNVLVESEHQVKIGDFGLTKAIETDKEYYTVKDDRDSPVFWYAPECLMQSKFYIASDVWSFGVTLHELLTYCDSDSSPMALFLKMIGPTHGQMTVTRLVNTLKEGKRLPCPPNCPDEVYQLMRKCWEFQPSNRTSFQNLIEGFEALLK

COc1cc2c3cc1Oc1c(OC)c(OC)cc4c1[C@@H](Cc1ccc(OCCCN5C(=O)c6ccccc6C5=O)c(c1)Oc1ccc(cc1)C[C@@H]3N(C)CC2)N(C)CC4 [BA #3]
inhibition of Jak1 kinase activity [1]: did not inhibit | Jak2/Stat3 signaling (phosphorylations of Jak, Src, Stat3 and AKT) [2]: inhibited Jak2/Stat3 signaling | IC50 [3]: 2.9 µM | inhibition of Jak2 kinase activity [4]: did not inhibit | IC50 [5]: 3.1 µM | inhibition of Src kinase activity [6]: did not inhibit | IC50 [7]: 2.9 µM | IC50 [8]: 7.5 µM | improvement in activity over berbamine [9]: at least 10 fold | IC50 ([9]; Homo sapiens, K562/Adr, 48 h): 1.1 µM | IC50 [10]: 3.9 µM | IC50 [11]: 3.2 µM | IC50 [12]: 2.8 µM | apoptosis (Annexin V-FITC) [13]: induced apoptosis | Bcl-xL protein level [14]: down-regulated | IC50 [15]: 3.3 µM | Jak2/Stat3 signaling (phosphorylations of Jak, Src, Stat3 and AKT) [16]: inhibited Jak2/Stat3 signaling | IC50 [17]: 3.7 µM | body weight versus vehicle [18]: no significant weight differences | IC50 [19]: 6.4 µM | IC50 [20]: 6.7 µM | inhibition of Tyk2 kinase activity [21]: did not inhibit | IC50 [22]: 3 µM | IC50 [23]: 0.69 µM | IC50 [24]: 3.9 µM | Mcl-1 protein level [25]: down-regulated | IC50 [26]: 3.4 µM
